Results published in patent US20080311589A1, “METHOD OF HIGH-THROUGHPUT SCREENING OF MOLECULES AND COMPOUNDS FOR THEIR EFFECTS ON BIOLOGICAL AND CHEMICAL PROCESSES” (priority 1999, published 2008).
Read-outs that look alike come from different tables or passages of the source.

Columns and labels:
[1] = test system: p3TPLux TGFβ-responsive reporter in 6F mink lung cells; assay: luciferase assay, stably transfected p3TPLux; type: cell-based; conditions: substance alone
Experimental: FIG. 19 graphs the dose-response of transcriptional activation of compounds 1a and 2 in the presence (*) or absence (•) of 400 pM TGFβ1. 20,000 6F mink lung cells ( ) were seeded in 384 well plates, allowed to attach for 16 hours in 10% mink medium, and were treated with the indicated concentrations of 1a or 2.
We screened more than 16,000 chemical compounds to identify those that specifically activated expression of a reporter gene (luciferase) under the control of TGFβ-responsive elements in stably transfected mammalian cells (mink lung epithelial cells). […] Given the structural similarity of compounds 1a-c, we expected that all three were operating through a common mechanism. We therefore continued testing on only one, compound 1a, as representative of the group.

[2] = test system: p3TPLux in 6F mink lung cells; assay: antagonism of p3TPLux activation in 6F mink lung cells; type: cell-based; conditions: for suppression of reporter activation by copper: TGFβ-responsive reporter; for suppression of reporter activation by 1a / suppression of reporter activation by 2 / suppression of reporter activation by TGFβ: TGFβ-responsive reporter in mink lung epithelial cells
Experimental: LUCIFERASE ASSAYS: Our transient transfection luciferase assay was described previously by us (Stockwell et al., Chem Biol 5:385, 1998). Briefly, 100,000 Mv1Lu mink lung epithelial cells were transiently transfected in 12-well dishes with 400 ng p3TPLux or pNFkB-Lux, with or without 50 ng pFC-MEKK, in 300 μL minimal essential medium with non-essential amino acids. The DEAE-dextran/chloroquine/DMSO methods was used for transfection (Stockwell et al., Chem Biol 6:71, 1999). After cell lysis in 120 μL lysis buffer, a Beckman LS 6500 liquid scintillation counter was used in single photon mode to quantitate luminescence. For detection of luciferase activity in 6F cells (including the primary screen), 20,000 6F cells were seeded in 50 μL of 10% mink medium in each well of a white 384-well plate (Nalge Nune International; Naperville, Ill.; cat#164610) using a Multidrop 384 liquid dispenser (Lab Systems; Helsinki, Finland). After 16 hours, medium was removed using a 24 channel wand (V&P Scientific, Inc.; San Diego, Calif.; cat#VP 186L), the cells were washed with 75 μL of 0.2% mink medium (containing 0.2% FBS), and reagents were added in 40 μL of 0.2% medium. For the primary screen, reagents were added by pin transfer using 384 polypropylene pin arrays (Matrix Technologies; Hudson, N.H.). After 24 hours, the cells were cooled on ice and washed twice with 75 μL Hanks Balanced Salt Solution (HBSS; GibcoBRL; cat#24020-117). Then 20 μL lysis buffer (25 mM glycylglycine (Sigma; cat#E-0396), 1% Triton X-100 (Sigma; cat#T-9284), 1 mM dithiothreitol (DTT; Sigma; cat#D-5545), 1 mM phenylmethylsulfonyl fluoride (PMSF; Sigma; cat#P-7626)) was added to each well with a Multidrop. After incubating the cells for five minutes on ice, 20 μL of ATP/luciferin solution was added (25 mM glycylglycine pH 7.8, 15 mM MgSO4, 4 mM EGTA, 6.25 mM K2HPO4 (Sigma; cat#P5504) pH 7.8, 5 mM DTT, 75 μM D-luciferin (Sigma, cat# L-9504, 2 mM ATP (Sigma; cat#A-7699)). Light output was immediately measured with an Analyst 384-well platereader (LJL), with 0.5 second counting time per well.

[3] = UV spectral shift binding assay with 2; conditions: metal ion concentration inducing a 50% shift in λmax of UV shoulder of 2 from 297 nm to 310 nm ([2] = 20 μM); read-out: EC50UV 2
Experimental: (§1) UV SPECTRAL SHIFT BINDING ASSAY: A quartz cuvette with 1 mL deionized, distilled water was used as a blank on a Cary 1E UV-visible spectrophotomer. 1a or 2 was diluted to a final concentration of 15 μM or 20 μM, respectively, and the UV spectrum from 240 nm to 320 nm was measured. […] Upon addition of certain transition metals (Table 1), this peak shifted such that the new λmax was 273 nm and 310 nm, for 1a and 2, respectively. […] For the calculation of correlation coefficients, all values less than 7.5 μM were taken to be 7.5 μM, all values greater than 1000 μM were taken to be 1000 μm and all values less than 10 μM were taken to be 10 μM.

[4] = UV spectral shift binding assay with 1a; conditions: metal ion concentration inducing a 50% shift in λmax of UV shoulder of 1a ([1a] = 15 μM) from 292 nm to 273 nm; estimate of dissociation constant; read-out: EC50UV 1a
Experimental: as §1

[5] = test system: Mv1Lu mink lung epithelial cells; assay: 384 well anti-BrdU cytoblot; type: cell-based; conditions: 384-well plate; antiproliferative agents 24 hours, then 10 μM BrdU 16 hours (FIG. 2)
Text: FIG. 1. An immunodetection assay for DNA synthesis in high density arrays of mammalian cells. (a) Cartoon depiction of an anti-BrdU cytoblot. The thymine analog 5-bromodeoxyuridine (BrdU) is incorporated into the DNA of cells that are actively replicating their DNA. The cells are in the well, and BrdU is detected with a two step antibody binding procedure. The second antibody is conjugated to the enzyme horseradish peroxidase. In the presence of the chemiluminescent substrate luminol as well as hydrogen peroxide, light of wavelength 428 nm is generated. The light emission can be detected by exposing the plate to film. (b) A cytoblot can detect TGF-β's ability to prevent BrdU incorporation in mink lung epithelial cells. 2000 Mv1Lu mink lung epithelial cells were seeded in each well of a white, opaque 384 well plate. The cells were seeded in the indicated concentrations of TGF-β in 50 μL of DMEM with 1% fetal bovine serum (FBS), 100 units/mL penicillin G sodium, 100 μg/mL streptomycin sulfate and 100 μM each of the amino acids alanine, aspartic acid, glutamine, glycine, asparagine and proline (referred to throughout as 1% mink medium) and allowed to incubate at 37° C. with 5% CO2. After 16 hours, 5.5 μL of 100 μM BrdU in 1% mink medium was added to each well, for a final concentration of 10 μM BrdU. The cells were incubated at 37° C. with 5% CO2 for an additional 16 hours and then an anti-BrdU cytoblot protocol was performed (see protocol). Wells shown are magnified 4×.
FIG. 2. A cytoblot can detect the ability of numerous antiproliferative agents to inhibit BrdU incorporation. 2000 Mv1Lu mink lung epithelial cells were seeded in each well of a white, opaque 384 well plate. The cells were seeded in 40 μL of 1% mink media and immediately 40 μL of 2× stocks of the reagents shown was added to each well and the cells were allowed to incubate at 37° C. with 5% CO2. After 24 hours, 9 μL of 100 μM BrdU in 1% mink medium was added to each well, for a final concentration of 10 μM BrdU. The cells were incubated at 37° C. with 5% CO2 for an additional 16 hours and then an anti-BrdU cytoblot protocol was performed (see protocol). Wells shown are magnified 2.5×.
The ability of the cytoblot assay to detect changes in DNA synthesis was tested by measuring the incorporation of 5-bromodeoxyuridine (BrdU, Sigma Corporation, St. Louis, Mo., Cat.# B9285) into DNA in the presence or absence of the anti-mitogen transforming growth factor β (TGF-β). Mink lung cells, which are responsive to TGF-β, were seeded into each well of an opaque, white 384-well plate. The cells were subsequently treated with varying concentrations of TGF-β for 16 hours and then with 10 μM BrdU for 16 hours. […] The following protocols provide experimental detail. […]

[6] = metal ion concentration inhibiting 50% of the activation of p3TPLux by 1a ([1a] = 3 μM) in 6F mink lung cells, read-out: EC50SU 1a
[7] = metal ion concentration inhibiting 50% of the activation of p3TPLux by 2 ([2] = 64 μM) in 6F mink lung cells, read-out: EC50Su 2

SMILES | activation of the TGFβ-responsive reporter gene [1] | alteration of the effect of 1a, 2, or copper on the reporter [2] | suppression of reporter activation by copper [2] | suppression of reporter activation by 1a [2] | suppression of reporter activation by 2 [2] | suppression of reporter activation by TGFβ [2] | EC50 [2, 6] [µM] | EC50 [2, 7] [µM] | EC50 [3] [µM] | EC50 [4] [µM] | BrdU incorporation [5]
Oc1cccc2cccnc12 [8-hydroxyquinoline, 8-quinolinol] | did not activate our reporter |  |  |  |  |  |  |  |  |  | 
CC(C)(C#N)N=NC(C)(C)C#N [AIBN, 2,2′-azobis (2-methylpropinonitrile)] |  | neither agent altered the effect of 1a, 2, or copper |  |  |  |  |  |  |  |  | 
[Cl][Al]([Cl])[Cl] [Al^3+, A1C13] |  |  | did not | suppressed transcriptional activation by 1a | no effect on activation by 2 or TGFβ | no effect on activation by 2 or TGFβ | 1 | > 300 | 200 | 30 | 
CC(=O)[O-].CC(=O)[O-].[Ba+2] [Ba^2+, Ba(OAc)2] |  |  |  |  |  |  | > 1000 | > 1000 | > 1000 | > 1000 | 
[Ca+2].[Cl-].[Cl-] [Ca^2+, CaCl2.2H2O] |  |  |  |  |  |  | > 1000 | > 1000 | > 1000 | > 1000 | 
O.O.O.O.O.O.[Cl-].[Cl-].[Co+2] [Co^2+, CoCl2.6H2O] |  |  | did not | completely suppressed | completely suppressed | no effect |  |  |  |  | 
[Cl-].[Cl-].[Co+2] [Co^2+, CoCl2.6H2O] |  |  |  |  |  |  | 10 | 30 | 50 | 100 | 
OO [Compound H2O2, H2O2] |  | neither agent altered the effect of 1a, 2, or copper |  |  |  |  |  |  |  |  | 
[Cl][Fe]([Cl])[Cl] [Fe^3+, FeCl3] |  |  | did not | completely suppressed | completely suppressed | no effect | 2 | 9 | < 10 | < 7.5 | 
[Cl-].[K+] [K^+, KCl] |  |  |  |  |  |  | > 1000 | > 1000 | > 1000 | > 1000 | 
[Cl-].[Cl-].[Mg+2] [Mg^2+, MgCl2] |  |  |  |  |  |  | > 1000 | > 1000 | > 1000 | > 1000 | 
O.O.O.O.[Cl][Mn][Cl] [Mn^2+, MnC12.4H2O] |  |  | did not | suppressed transcriptional activation by 1a | no effect on activation by 2 or TGFβ | no effect on activation by 2 or TGFβ | 200 | > 300 | > 1000 | 80 | 
[Cl-].[Na+] [Na^+, NaCl] |  |  |  |  |  |  | > 1000 | > 1000 | > 1000 | > 1000 | 
O.O.O.O.O.O.O=S(=O)([O-])[O-].[Ni+2] [Ni^2+, NiSO4.6H2O] |  |  | did not | suppressed transcriptional activation by 1a | no effect on activation by 2 or TGFβ | no effect on activation by 2 or TGFβ | 10 |  | 500 | 280 | 
[Cl-].[Cl-].[Zn+2] [Zn^2+, ZnCl2] |  |  | suppressed the ability of copper to activate reporter gene expression | suppressed transcriptional activation by 1a | no effect on activation by 2 or TGFβ | no effect on activation by 2 or TGFβ | 0.5 | > 300 | 500 | < 7.5 | 
NC(=O)NO [hydroxyurea] |  |  |  |  |  |  |  |  |  |  | effectively prevent BrdU incorporation
